Results published in patent US20260285888A1, “HETEROCYCLIC COMPOUND AND USE THEREOF” (OTSUKA PHARMACEUTICAL CO., LTD., priority 2023, published 2026).

Assay: Study for confirmation of conversion to brexpiprazole in a buffer (stability of the evaluation compounds)
Assay type: physicochemical
Details: in buffer, average of duplicate; for Concentration of brexpiprazole formed: 60-minute reaction sample; for Concentration of evaluation compound decreased: decrease in 60-minute vs 0-minute reaction sample
Procedure: The conversion from the evaluation compounds to brexpiprazole in a buffer (i.e., the stability of the evaluation compounds) was evaluated.
The Example 1 compound was dissolved in acetonitrile/water (1:1, v/v) to 10 mmol/L and further diluted with acetonitrile/water (1:1, v/v) to 100 μmol/L for use.
The other Example compounds and the Reference Example 5 compound to Reference Example 7 compound were each dissolved in DMSO to 10 mmol/L and further diluted with acetonitrile to 100 μmol/L for use, except for the following compounds.
The compounds of Examples 52, 95, 96, 117, and 130 (EX 52, EX 95, EX 96, EX 117, and EX 130) were dissolved in acetonitrile/water (8:2, v/v) to 10 mmol/L and further diluted with acetonitrile to 100 μmol/L for use.
The compound of Example 97 (EX 97) was dissolved in acetonitrile/water (8:2, v/v) to 10 mmol/L and further diluted with acetonitrile/water (8:2, v/v) to 100 μmol/L for use.
The compounds of Examples 15 and 116 (EX 15 and EX 116) were dissolved in DMSO to 1 mmol/L and further diluted with acetonitrile to 100 μmol/L for use.
The reaction was conducted by preparing each reaction solution such that the final concentration of each component was as follows. The test was conducted in duplicate.
For the compounds of Examples 1 to 8, 10 to 19, 26 to 27, 37, 50, 87 to 89, 91, 116, 121, 123, 150, and 151 (EX 1 to EX 8, EX 10 to EX 19, EX 26 to EX 27, EX 37, EX 50, EX 87 to EX 89, EX 91, EX 116, EX 121, EX 123, EX 150, and EX 151), and the compounds of Reference Examples 5 to 7 (REX 5 to REX 7), the reaction solution without the evaluation compound (198 μl) was pre-incubated at 37° C. for 3 minutes, and then each of the evaluation compound solutions (2 μl) was added and stirred; thereafter, the reaction was started at 37° C. At 0 minutes or 60 minutes after the start of the reaction, the reaction was stopped by adding and stirring a reaction stop solution (1000 μl) composed of acetonitrile/isopropanol (4:1, v/v) containing internal standard substances. However, the 0-minute reaction sample (198 μl) was prepared by adding the evaluation compound (2 μl) after adding the reaction stop solution (1000 μl). The samples after stopping the reaction were used as the measurement samples. Calibration curve samples with the same composition were prepared (final concentrations of the evaluation compounds and brexpiprazole: 0.01, 0.1, and 1 μmol/L, with the proviso that for the evaluation compounds only, the 0-minute reaction samples were also used as calibration curve samples for 1 μmol/L).
For the compounds of Examples 24 to 25, 28 to 29, 32 to 36, 40 to 49, 51 to 60, 62 to 64, 66 to 77, 80 to 86, 90, 92 to 111, 113, 115, 117 to 120, 122, 124 to 130, 132 to 147, and 152 to 160 (EX 24 to EX 25, EX 28 to EX 29, EX 32 to EX 36, EX 40 to EX 49, EX 51 to EX 60, EX 62 to EX 64, EX 66 to EX 77, EX 80 to EX 86, EX 90, EX 92 to EX 111, EX 113, EX 115, EX 117 to EX 120, EX 122, EX 124 to EX 130, EX 132 to EX 147, and EX 152 to EX 160), the reaction solution without the evaluation compound (148.5 μl) was pre-incubated at 37° C. for 3 minutes, and then each of the evaluation compound solutions (1.5 μl) was added and stirred; thereafter, the reaction was started at 37° C. At 0 minutes or 60 minutes after the start of the reaction, the reaction was stopped by adding and stirring a reaction stop solution (600 μl) composed of acetonitrile/isopropanol (4:1, v/v) containing internal standard substances. However, the 0-minute reaction sample (148.5 μl) was prepared by adding the evaluation compound (1.5 μl) after adding the reaction stop solution (600 μl). The samples after stopping the reaction were used as the measurement samples. Calibration curve samples with the same composition were prepared (final concentrations of the evaluation compounds and brexpiprazole: 0.01, 0.1, and 1 μmol/L, with the proviso that for the evaluation compounds only, the 0-minute reaction samples were also used as calibration curve samples for 1 μmol/L). […]

Row | SMILES | Concentration of brexpiprazole formed [nM] | Concentration of evaluation compound decreased [nM]
1 | CC(C)(C)OP(=O)([O-])OC[N+]1(CCCCOc2ccc3ccc(=O)[nH]c3c2)CCN(c2cccc3sccc23)CC1 [EX 4, (4-(benzo[b]thiophen-4-yl)-1-(4-((2-oxo-1,2-dihydroquinolin-7-yl)oxy)butyl)piperazin-1-ium-1-yl)methyl tert-butyl phosphate] | 0 | 20
2 | CC(C)OP(=O)([O-])OC[N+]1(CCCCOc2ccc3ccc(=O)[nH]c3c2)CCN(c2cccc3sccc23)CC1 [EX 5, (4-(benzo[b]thiophen-4-yl)-1-(4-((2-oxo-1,2-dihydroquinolin-7-yl)oxy)butyl)piperazin-1-ium-1-yl)methyl isopropyl phosphate] | 0 | 70
3 | O=c1ccc2ccc(OCCCC[N+]3(COP(=O)([O-])OCCCO)CCN(c4cccc5sccc45)CC3)cc2[nH]1 [EX 6, (4-(benzo[b]thiophen-4-yl)-1-(4-((2-oxo-1,2-dihydroquinolin-7-yl)oxy)butyl)piperazin-1-ium-1-yl)methyl (3-hydroxypropyl) phosphate] | 0 | -110
4 | CC(C)(C)C(=O)OCOP(=O)([O-])OC[N+]1(CCCCOc2ccc3ccc(=O)[nH]c3c2)CCN(c2cccc3sccc23)CC1 [EX 25, (4-(benzo[b]thiophen-4-yl)-1-(4-((2-oxo-1,2-dihydroquinolin-7-yl)oxy)butyl)piperazin-1-ium-1-yl)methyl ((pivaloyloxy)methyl) phosphate] | 0 | -10
5 | CCCCCCCC(=O)OCOP(=O)([O-])OC[N+]1(CCCCOc2ccc3ccc(=O)[nH]c3c2)CCN(c2cccc3sccc23)CC1 [EX 27, (4-(benzo[b]thiophen-4-yl)-1-(4-((2-oxo-1,2-dihydroquinolin-7-yl)oxy)butyl)piperazin-1-ium-1-yl)methyl ((octanoyloxy)methyl) phosphate] | 0 | 0
6 | CCCCCCCCOP(=O)([O-])OC[N+]1(CCCCOc2ccc3ccc(=O)[nH]c3c2)CCN(c2cccc3sccc23)CC1 [EX 37, (4-(benzo[b]thiophen-4-yl)-1-(4-((2-oxo-1,2-dihydroquinolin-7-yl)oxy)butyl)piperazin-1-ium-1-yl)methyl octyl phosphate] | 0 | 60
7 | COc1ccc(C(=O)OCCCCCCOP(=O)([O-])OC[N+]2(CCCCOc3ccc4ccc(=O)[nH]c4c3)CCN(c3cccc4sccc34)CC2)cc1 [EX 58, (4-(benzo[b]thiophen-4-yl)-1-(4-((2-oxo-1,2-dihydroquinolin-7-yl)oxy)butyl)piperazin-1-ium-1-yl)methyl (6-((4-methoxybenzoyl)oxy)hexyl) phosphate] | 0 | 40
8 | O=c1ccc2ccc(OCCCC[N+]3(COP(=O)([O-])OCC#CCCl)CCN(c4cccc5sccc45)CC3)cc2[nH]1 [EX 63, (4-(benzo[b]thiophen-4-yl)-1-(4-((2-oxo-1,2-dihydroquinolin-7-yl)oxy)butyl)piperazin-1-ium-1-yl)methyl (4-chlorobut-2-yn-1-yl) phosphate] | 0 | 20
9 | CCOC(=O)CCCC(=O)OCOP(=O)([O-])OC[N+]1(CCCCOc2ccc3ccc(=O)[nH]c3c2)CCN(c2cccc3sccc23)CC1 [EX 68, (4-(benzo[b]thiophen-4-yl)-1-(4-((2-oxo-1,2-dihydroquinolin-7-yl)oxy)butylpiperazin-1-ium-1-yl)methyl (((5-ethoxy-5-oxopentanoyl)oxy)methyl) phosphate] | 0 | 90
